Reference: patent US10562898B2, “Substituted benzenesulfonamides as inhibitors of alpha-4 beta-7 integrin activity” (EA PHARMA CO., LTD., priority 2016, dated 2020)

Molecular target: T1, α4β7 integrin (Homo sapiens, UniProt P13612+P26010)
T1 construct: a cell line RPMI-8866, which is known to express α4β7 integrin; endogenous in cells; host or cells: RPMI-8866 (human B cell line)
T1 sequence (P13612 34-1032): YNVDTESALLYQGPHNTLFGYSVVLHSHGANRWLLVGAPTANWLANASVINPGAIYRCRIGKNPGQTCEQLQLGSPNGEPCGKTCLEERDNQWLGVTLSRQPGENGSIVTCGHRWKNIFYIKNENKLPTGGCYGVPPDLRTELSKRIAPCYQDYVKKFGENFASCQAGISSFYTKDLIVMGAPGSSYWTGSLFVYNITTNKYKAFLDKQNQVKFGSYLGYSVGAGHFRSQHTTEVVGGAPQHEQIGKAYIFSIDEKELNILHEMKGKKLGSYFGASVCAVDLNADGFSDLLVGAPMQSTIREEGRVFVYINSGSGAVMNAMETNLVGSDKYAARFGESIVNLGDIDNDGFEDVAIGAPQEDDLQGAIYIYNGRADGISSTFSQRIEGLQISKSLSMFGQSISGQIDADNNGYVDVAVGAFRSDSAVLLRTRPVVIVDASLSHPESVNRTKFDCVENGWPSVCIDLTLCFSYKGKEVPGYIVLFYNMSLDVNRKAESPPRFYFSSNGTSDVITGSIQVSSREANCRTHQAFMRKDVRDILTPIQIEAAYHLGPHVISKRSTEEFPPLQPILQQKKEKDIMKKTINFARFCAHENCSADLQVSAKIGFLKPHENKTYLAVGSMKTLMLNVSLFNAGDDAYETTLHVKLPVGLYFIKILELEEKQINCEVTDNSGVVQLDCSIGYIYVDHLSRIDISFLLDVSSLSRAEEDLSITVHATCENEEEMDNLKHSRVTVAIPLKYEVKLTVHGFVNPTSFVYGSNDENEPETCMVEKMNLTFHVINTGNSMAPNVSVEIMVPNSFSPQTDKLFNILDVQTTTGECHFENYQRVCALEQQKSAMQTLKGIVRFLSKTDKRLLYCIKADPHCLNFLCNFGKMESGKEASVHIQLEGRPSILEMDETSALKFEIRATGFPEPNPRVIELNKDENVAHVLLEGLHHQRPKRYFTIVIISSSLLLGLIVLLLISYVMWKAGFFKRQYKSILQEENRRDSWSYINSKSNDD
T1 sequence (P26010 20-798): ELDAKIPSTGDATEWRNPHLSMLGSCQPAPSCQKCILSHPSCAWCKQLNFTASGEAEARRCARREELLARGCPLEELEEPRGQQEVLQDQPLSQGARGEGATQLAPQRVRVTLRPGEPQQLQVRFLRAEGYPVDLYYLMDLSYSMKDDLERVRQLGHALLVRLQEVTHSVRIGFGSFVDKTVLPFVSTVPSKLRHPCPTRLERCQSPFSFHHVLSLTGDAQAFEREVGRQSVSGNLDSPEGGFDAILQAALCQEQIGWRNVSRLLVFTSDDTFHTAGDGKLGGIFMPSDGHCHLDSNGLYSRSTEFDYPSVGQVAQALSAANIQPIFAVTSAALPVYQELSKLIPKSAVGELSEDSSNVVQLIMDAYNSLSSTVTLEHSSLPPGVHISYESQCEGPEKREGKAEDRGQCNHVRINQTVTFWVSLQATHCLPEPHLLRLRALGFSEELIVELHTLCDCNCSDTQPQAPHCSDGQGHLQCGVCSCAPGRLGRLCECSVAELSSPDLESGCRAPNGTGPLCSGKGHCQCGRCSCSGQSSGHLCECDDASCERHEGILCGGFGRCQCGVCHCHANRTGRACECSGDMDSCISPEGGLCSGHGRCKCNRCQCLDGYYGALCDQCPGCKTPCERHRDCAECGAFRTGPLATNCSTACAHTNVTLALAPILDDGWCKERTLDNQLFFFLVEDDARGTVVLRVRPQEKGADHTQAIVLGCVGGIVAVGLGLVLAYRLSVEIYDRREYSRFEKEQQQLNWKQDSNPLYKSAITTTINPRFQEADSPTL
Test: MAdCAM-1/α4β7 integrin binding inhibitory activity evaluation test in presence of serum
Format: cell-based
Settings: RPMI-8866 cells, recombinant mouse MAdCAM-1/Fc, 50% human serum; read-out: α4β7 Serum Added IC50
Protocol: (3) MAdCAM-1/α4β7 Integrin Binding Inhibitory Activity Evaluation Test in Presence of Serum (1)
Each test substance was measured in terms of an ability to inhibit the MAdCAM-1 binding of a human B cell line, namely, a cell line RPMI-8866, which is known to express α4β7 integrin.
A solution of recombinant mouse MAdCAM-1/Fc (R&D Systems, Inc.) (1 μg/mL) diluted with a buffer A (carbonate buffer, pH 9.6) was added in an amount of 50 μL/well to a 96-well microtiter plate, followed by incubation at 4° C. overnight. After the plate was washed with PBS once, 150 μL/well of Block Ace (Snow Brand Milk Products Co., Ltd.) was added, followed by incubation at room temperature for 2 hours. After removal, the plate was washed with PBS once.
Then, 100 μL of the RPMI-8866 cells (2×10^6 cells/mL) and 100 of the test substance at each of various concentrations diluted with a binding buffer (DMEM containing 40 mM HEPES, 0.2% BSA, and 4 mM MnCl2) were added to the plate coated with the MAdCAM-1/Fc (5×10^5 cells/well) such that 50% human serum was contained at the final concentration. Then, incubation was allowed to proceed at 30° C. for 15 to 60 minutes. After the cells were bound to the wells, the plate was washed with PBS to remove unbound cells. A buffer C (PBS containing 1.5% Triton X-100) was added in an amount 50 μL/well to the plate to lyse the bound RPMI-8866 cells. After 30 μL of a substrate buffer (Promega, CytoTox 96 Non-Radioactive Cytotoxicity Assay) was added to 30 μL of the cell lysate, a reaction was allowed to proceed at room temperature in the dark for 30 minutes. After 30 μL of a stop solution (Promega, CytoTox 96 Non-Radioactive Cytotoxicity Assay) was added to each, and then an absorbance at 490 nm was measured using a plate reader. The absorbance obtained here represents a detection result of an activity of lactate dehydrogenase (LDH) eluted in the supernatant of each well, that is, the absorbance is proportional to the number of RPMI-8866 cells bound to the MAdCAM-1 and thus remaining on the plate. The test was performed in duplicate. Provided that the absorbance of the well containing no test substance was 100%, a cell binding rate with the test substance at each of the various concentrations was figured out, and a concentration IC50 which brought about 50% binding inhibition was calculated.

Compound | IC50 [nM]
Cn1c(=O)n(-c2ccc(C[C@H](NC(=O)c3cc(F)c(NS(=O)(=O)c4ccc(NC(=O)C5(c6ccccc6)CC5)cc4)cc3F)C(=O)O)cn2)c(=O)c2ccncc21 [Compound A29] | 54
Cc1c(C)n(C)c(=O)n(-c2ccc(C[C@H](NC(=O)c3cc(F)c(NS(=O)(=O)c4ccc(NC(=O)C5(c6ccccc6)CC5)cc4)cc3F)C(=O)O)cc2)c1=O [Compound A30] | 43
Cc1c(C)n(C)c(=O)n(-c2ccc(C[C@H](NC(=O)c3cc(F)c(NS(=O)(=O)c4ccc(-n5ccc(C6CCOCC6)cc5=O)cc4)cc3F)C(=O)O)cc2)c1=O [Compound A34] | 24
Cc1c(C)n(C)c(=O)n(-c2ccc(C[C@H](NC(=O)c3cc(F)c(NS(=O)(=O)c4ccc(N(C)C(=O)C(C)(C)C)cc4)cc3F)C(=O)O)cc2)c1=O [Compound A35] | 600
COc1cc2c(=O)n(-c3ccc(C[C@H](NC(=O)c4cc(F)c(NS(=O)(=O)c5ccc(NC(=O)C(C)(C)C)cc5)cc4F)C(=O)O)cc3)c(=O)n(C)c2cn1 [Compound A36] | 18
CN1C(=O)N(c2ccc(S(=O)(=O)Nc3cc(F)c(C(=O)N[C@@H](Cc4ccc(-n5c(=O)c6ccncc6n(C)c5=O)nc4)C(=O)O)cc3F)cc2)C(=O)C1(C)C [Compound A38] | 20
Cn1c2c(c(=O)n(-c3ccc(C[C@H](NC(=O)c4cc(F)c(NS(=O)(=O)c5ccc(NC(=O)C(C)(C)C)cc5)cc4F)C(=O)O)nc3)c1=O)CCCC2 [Compound A47] | 15
Cc1c(C)n(C(C)C)c(=O)n(-c2ccc(C[C@H](NC(=O)c3cc(F)c(NS(=O)(=O)c4ccc(NC(=O)C(C)(C)C)cc4)cc3F)C(=O)O)cc2)c1=O [Compound A48] | 22
Cc1c(C)n(C)c(=O)n(-c2ccc(C[C@H](NC(=O)c3cc(F)c(NS(=O)(=O)c4cccc(NC(=O)C(C)(C)C)c4)cc3F)C(=O)O)cc2)c1=O [Compound A49] | 45
Cc1c(C)n(C)c(=O)n(-c2ccc(C[C@H](NC(=O)c3cc(F)c(NS(=O)(=O)c4cccc(NC(=O)C(C)(C)C)c4)cc3F)C(=O)O)cn2)c1=O [Compound A50] | 63
Cc1c(CO)c(=O)n(-c2ccc(C[C@H](NC(=O)c3cc(F)c(NS(=O)(=O)c4ccc(NC(=O)C(C)(C)C)cc4)cc3F)C(=O)O)cc2)c(=O)n1C [Compound A51] | 13
Cn1ccc(=O)n(-c2ccc(C[C@H](NC(=O)c3cc(F)c(NS(=O)(=O)c4ccc(NC(=O)C(C)(C)C)cc4)cc3F)C(=O)O)cn2)c1=O [Compound A53] | 11
Cn1ccc(=O)n(-c2ccc(C[C@H](NC(=O)c3cc(F)c(NS(=O)(=O)c4ccc(NC(=O)C5(C(F)(F)F)CC5)cc4)cc3F)C(=O)O)cn2)c1=O [Compound A55] | 33
Cc1cn(C)c(=O)n(-c2ccc(C[C@H](NC(=O)c3cc(F)c(NS(=O)(=O)c4ccc(NC(=O)C5(C(F)(F)F)CC5)cc4)cc3F)C(=O)O)cn2)c1=O [Compound A56] | 19

These reach a lower IC50. Values come first.

IC50 [nM] | Compound
4.4 | Cc1c(C)n(C)c(=O)n(-c2ccc(C[C@H](NC(=O)c3cc(F)c(NS(=O)(=O)c4ccc(NC(=O)C(C)(C)C)cc4)cc3F)C(=O)O)cn2)c1=O [Compound A28]
5 | Cn1c(=O)n(-c2ccc(C[C@H](NC(=O)c3cc(F)c(NS(=O)(=O)c4ccc(NC(=O)C(C)(C)C)cn4)cc3F)C(=O)O)cn2)c(=O)c2ccncc21 [Compound A31]
3 | Cc1c(C)n(C)c(=O)n(-c2ccc(C[C@H](NC(=O)c3cc(F)c(NS(=O)(=O)c4ccc(NC(=O)C(C)(C)C)cn4)cc3F)C(=O)O)cn2)c1=O [Compound A32]
1.7 | Cn1c2c(c(=O)n(-c3ccc(C[C@H](NC(=O)c4cc(F)c(NS(=O)(=O)c5ccc(NC(=O)C(C)(C)C)cc5)cc4F)C(=O)O)cc3)c1=O)COCC2 [Compound A33]
6.6 | Cc1cn(C)c(=O)n(-c2ccc(C[C@H](NC(=O)c3cc(F)c(NS(=O)(=O)c4ccc(NC(=O)C(C)(C)C)cc4)cc3F)C(=O)O)cc2)c1=O [Compound A37]
4.3 | Cn1c2c(c(=O)n(-c3ccc(C[C@H](NC(=O)c4cc(F)c(NS(=O)(=O)c5ccc(NC(=O)C(C)(C)C)cc5)cc4F)C(=O)O)cn3)c1=O)CCOC2 [Compound A40]
1.9 | CN1CCc2c(n(C)c(=O)n(-c3ccc(C[C@H](NC(=O)c4cc(F)c(NS(=O)(=O)c5ccc(NC(=O)C(C)(C)C)cc5)cc4F)C(=O)O)cc3)c2=O)C1 [Compound A41]
9.8 | Cn1ccc(=O)n(-c2ccc(C[C@H](NC(=O)c3cc(F)c(NS(=O)(=O)c4ccc(NC(=O)C(C)(C)C)cc4)cc3F)C(=O)O)cc2)c1=O [Compound A42]
5.8 | Cn1cnc2c1c(=O)n(-c1ccc(C[C@H](NC(=O)c3cc(F)c(NS(=O)(=O)c4ccc(NC(=O)C(C)(C)C)cc4)cc3F)C(=O)O)cc1)c(=O)n2C [Compound A43]
2.6 | Cn1c2c(c(=O)n(-c3ccc(C[C@H](NC(=O)c4cc(F)c(NS(=O)(=O)c5ccc(NC(=O)C(C)(C)C)cc5)cc4F)C(=O)O)cn3)c1=O)COCC2 [Compound A44]
8.4 | Cc1cc(=O)n(-c2ccc(C[C@H](NC(=O)c3cc(F)c(NS(=O)(=O)c4ccc(NC(=O)C(C)(C)C)cc4)cc3F)C(=O)O)cn2)c(=O)n1C [Compound A45]
7.6 | Cc1cc(=O)n(-c2ccc(C[C@H](NC(=O)c3cc(F)c(NS(=O)(=O)c4ccc(NC(=O)C(C)(C)C)cc4)cc3F)C(=O)O)cc2)c(=O)n1C [Compound A46]
4.9 | Cn1c2c(c(=O)n(-c3ccc(C[C@H](NC(=O)c4cc(F)c(NS(=O)(=O)c5ccc(NC(=O)C(C)(C)C)cc5)cc4F)C(=O)O)cn3)c1=O)CCCC2 [Compound A52]
8.4 | Cc1cn(C)c(=O)n(-c2ccc(C[C@H](NC(=O)c3cc(F)c(NS(=O)(=O)c4ccc(NC(=O)C(C)(C)C)cc4)cc3F)C(=O)O)cn2)c1=O [Compound A54]
